Literature values, collected in patent US20070071809A1, “Ginger containing compositions to control pain” (priority 2005, published 2007).

Test system: osteoarthritis of the knee
Details: 1500 mg per day

N[C@H]1C(O)O[C@H](CO)[C@@H](O)[C@@H]1O (some centres unmarked) [Glucosamine]
knee pain in patients with osteoarthritis of the knee (212 patients, half glucosamine, half placebo): reduce knee pain
pain scores versus placebo group (placebo group had worsened pain scores): statistically improved pain scores
